In patent US11091447B2, “UBE2K modulators and methods for their use” (Berg LLC, priority 2020, dated 2021) one finds IC50 data, which are given here for 60 compounds.

The first experiment has as its system MIA PaCa-2 cells. The experiment can be described thus: Cellular viability assay (Cell Titer Fluor). The experiment is classed as cell-based. Conditions: 72 hours incubation. As to the method: Cell viability were performed using the Cell Titer Fluor™ Assays (Promega G6080). MIA PaCa-2 cells are grown in DMEM media with 10% FBS, 1% Pen/Strep/Amphotericin B. Cells are trypsinized and counted using the Nexcelom cellometer. 5,000 cells/100 μl are plated per well in Greiner black/clear 96-well plates. Cells should be within 10 passages of stock vial for use in workflow. Three distinct lineages of these cells are cultured in parallel for multiple passages and 5 full plates of each lineage are seeded for one run. Small molecule compounds are provided as 100 mM stock solutions in DMSO. Dilution series plates are prepared using 1:3 dilution to achieve a 7 point concentration on a half log scale. After addition of compounds, cells are incubated 37° C., 5% CO2 for 72 hours.
For each test compound condition, triplicate technical replicates are used. For each reference compound, duplicate technical replicates are used. At the end of the 72-hour incubation, spent media is discarded. Then, 100 μl of GF-AFC diluted in DMEM (serum and phenol red-free) is added at 1:2000 concentration (5 μl/10 ml). Cells are incubated with reaction buffer for 1 h at 37° C. Fluorescence is then read on the plate reader with excitation wavelength of 390 nm and emission wavelength of 505 nm. All raw data are analyzed on Microsoft Excel 2010 and normalized to the DMSO vehicle control. Relative results are copied into GraphPad Prism for non-linear regression analysis and determination of IC50 and other dose curve parameters (min, max, Hill slope, etc.) using the log (inhibitor) vs. response equation. Values are as follows: A represents an IC50 of <[…], B represents an IC50 of 1 mM to 10 mM, C represents an IC50 of >10 mM.
As a reminder, the IC50 is the concentration that gives 50% inhibition. Read a high IC50 as lower potency. `O=C(NCc1cc(-c2cc(F)ccc2O)[nH]n1)c1ccccc1OC(F)(F)F` [Compound 52] showed an IC50 of more than 10 µM.

The same experiment, now with this note: Homo sapiens, MIA PaCa-2, 72 h, 72 hours incubation.
Regarding `COc1ccc(F)cc1-c1nc(CNC(=O)c2cc(F)ccc2OC(F)F)n[nH]1` [Comp 137], the IC50 was less than 1 µM. Consider `O=C(NCc1cc(-c2cccs2)[nH]n1)c1ccccc1OC(F)F` [Compound 4], for which the IC50 is more than 10 µM. `O=C(NCc1cc(-c2cccs2)[nH]n1)c1ccccc1OC(F)(F)F` [Compound 5] came in with an IC50 of more than 10 µM. Compound `O=C(NCc1n[nH]c(-c2cccs2)n1)c1ccccc1CC(F)(F)F` [Compound 8] registered an IC50 of more than 10 µM. For the compound `O=C(NCc1cc(-c2cccs2)[nH]n1)c1ccc(O)cc1C(F)(F)F` [Compound 13], the IC50 was more than 10 µM. Consider `O=C(NCc1n[nH]c(-c2cccs2)n1)c1ccccc1OC(F)(F)F` [Compound 14], for which the IC50 was more than 10 µM. `O=C(NCc1n[nH]c(-c2cccs2)n1)c1ccccc1OC(F)F` [Compound 15] had an IC50 of more than 10 µM. On the same count and under the same terms, the same measure for `Cc1cscc1-c1cc(CNC(=O)c2ccccc2OC(F)(F)F)n[nH]1` [Compound 16, N-((5-(4-methylthiophen-3-yl)-1H-pyrazol-3-yl)methyl)-2-(trifluoromethoxy) benzamide]: more than 10 µM; for `Cc1sccc1-c1cc(CNC(=O)c2ccccc2OC(F)(F)F)n[nH]1` [Compound 17]: more than 10 µM; for `COc1ccc(C(F)(F)F)cc1-c1cc(CNC(=O)c2ccccc2OC(F)(F)F)n[nH]1` [Compound 20]: more than 10 µM.

Turning to `O=C(NCc1cc(-c2csc(Cl)c2)[nH]n1)c1ccccc1OC(F)(F)F` [Compound 21], the IC50 is more than 10 µM. As to `O=C(NCc1cc(-c2ccsc2Cl)[nH]n1)c1ccccc1OC(F)(F)F` [Compound 22], the half-maximal inhibitory concentration (IC50) is more than 10 µM.

For `Cc1cn[nH]c1-c1cc(CNC(=O)c2ccccc2OC(F)(F)F)n[nH]1` [Compound 24], the IC50 was more than 10 µM. `O=C(NCc1cc(-c2ccn[nH]2)[nH]n1)c1ccccc1OC(F)(F)F` [Compound 25] registered an IC50 of more than 10 µM. `COc1ncccc1-c1cc(CNC(=O)c2ccccc2OC(F)(F)F)n[nH]1` [Compound 27]: the half-inhibitory concentration (IC50) was more than 10 µM. With `O=C(NCc1cc(-c2cccnc2O)[nH]n1)c1ccccc1OC(F)(F)F` [Compound 28], the IC50 is more than 10 µM. `O=C(NCc1cc(-c2cccc3cn[nH]c23)[nH]n1)c1ccccc1OC(F)(F)F` [Compound 29] gave an IC50 of more than 10 µM.

For `CN(C)c1ccccc1-c1cc(CNC(=O)c2ccccc2OC(F)(F)F)n[nH]1` [Compound 30], the IC50 is more than 10 µM. `COc1ccccc1-c1cc(CNC(=O)c2ccccc2OC(F)(F)F)n[nH]1` [Compound 31]: the half-maximal inhibitory concentration (IC50) is less than 1 µM. `COc1ccncc1-c1cc(CNC(=O)c2ccccc2OC(F)(F)F)n[nH]1` [Compound 33] displayed a concentration for half-maximal inhibition (IC50) of 1 to 10 µM.

The compound `COc1cccnc1-c1nc(CNC(=O)c2ccccc2OC(F)(F)F)n[nH]1` [Compound 34, N-((5-(3-methoxypyridin-2-yl)-1H-1,2,4-triazol-3-yl)methyl)-2-(trifluoromethoxy)benzamide] showed an IC50 of 1 to 10 µM. With `COc1ccncc1-c1nc(CNC(=O)c2ccccc2OC(F)(F)F)n[nH]1` [Compound 35], the IC50 lay in the range of 1 to 10 µM. The compound `COc1ccsc1-c1cc(CNC(=O)c2ccccc2OC(F)(F)F)n[nH]1` [Compound 36] came in with an IC50 of less than 1 µM. `COc1cnccc1-c1cc(CNC(=O)c2ccccc2OC(F)(F)F)n[nH]1` [Compound 37]: the IC50 is more than 10 µM. `COc1ccc(OC)c(-c2cc(CNC(=O)c3ccccc3OC(F)(F)F)n[nH]2)c1` [Compound 39] registered an IC50 of more than 10 µM. Compound `O=C(NCc1cc(-c2cc(O)ccc2O)[nH]n1)c1ccccc1OC(F)(F)F` [Compound 40, N-((5-(2,5-dihydroxyphenyl)-1H-pyrazol-3-yl)methyl)-2-(trifluoromethoxy) benzamide] came in with an IC50 of more than 10 µM. `O=C(NCc1cc(-c2cccc(O)c2O)[nH]n1)c1ccccc1OC(F)(F)F` [Compound 43] yielded an IC50 of more than 10 µM. Same read-out and setting: the figure for `CCOc1ccc(F)cc1-c1cc(CNC(=O)c2ccccc2OC(F)(F)F)n[nH]1` [Compound 44] is 1 to 10 µM. With `CCOc1ccc(Cl)cc1-c1cc(CNC(=O)c2ccccc2OC(F)F)n[nH]1` [Compound 47], the IC50 is more than 10 µM. In turn, `COc1ccc(Cl)cc1-c1cc(CNC(=O)c2ccccc2OC(F)(F)F)n[nH]1` [Compound 48] had an IC50 of 1 to 10 µM. Same read-out and setting: the same measure for `COc1c(F)cc(F)cc1-c1cc(CNC(=O)c2ccccc2OC(F)(F)F)n[nH]1` [Compound 49]: 1 to 10 µM; for `O=C(NCc1cc(-c2cc(F)cc(F)c2O)[nH]n1)c1ccccc1OC(F)(F)F` [Compound 50]: more than 10 µM.

`COc1ccc(F)cc1-c1cc(CNC(=O)c2ccccc2OC(F)(F)F)n[nH]1` [Compound 51] gave an IC50 of less than 1 µM. Still for that read-out and setting: the figure for `O=C(NCc1cc(-c2ccccc2O)[nH]n1)c1ccccc1OC(F)(F)F` [Compound 53] is less than 1 µM; for `CCOc1ccccc1-c1nc(CNC(=O)c2ccccc2OC(F)(F)F)n[nH]1` [Compound 57] it is less than 1 µM; for `CCOc1ccccc1-c1nc(CNC(=O)c2ccccc2OC(F)F)n[nH]1` [Compound 58] it is less than 1 µM. With `CCOc1ccc(Br)cc1-c1nc(CNC(=O)c2ccccc2OC(F)F)n[nH]1` [Compound 59], the IC50 was more than 10 µM.

In turn, `O=C(NCc1n[nH]c(-c2ccccc2O)n1)c1ccccc1OC(F)F` [Compound 60, 2-(Difluoromethoxy)-N-((5-(2-hydroxyphenyl)-1H-1,2,4-triazol-3-yl)methyl) benzamide] displayed an IC50 of less than 1 µM. Same read-out and setting: the figure for `O=C(NCc1n[nH]c(-c2cccc(O)c2O)n1)c1ccccc1OC(F)F` [Compound 61, 2-(Difluoromethoxy)-N-((5-(2,3-dihydroxyphenyl)-1H-1,2,4-triazol-3-yl)methyl) benzamide] is 1 to 10 µM; for `COc1c(O)cccc1-c1nc(CNC(=O)c2ccccc2OC(F)F)n[nH]1` [Compound 62, 2-(difluoromethoxy)-N-((5-(3-hydroxy-2-methoxyphenyl)-1H-1,2,4-triazol-3-yl)methyl) benzamide] it is 1 to 10 µM; for `COc1ccc(O)cc1-c1nc(CNC(=O)c2ccccc2OC(F)F)n[nH]1` [Compound 63, 2-(Difluoromethoxy)-N-((5-(5-hydroxy-2-methoxyphenyl)-1H-1,2,4-triazol-3-yl)methyl) benzamide] it is 1 to 10 µM.

Compound `O=C(NCc1n[nH]c(-c2cc(O)ccc2O)n1)c1ccccc1OC(F)F` [Compound 64] came in with an IC50 of 1 to 10 µM. Same read-out and setting: the figure for `O=C(NCc1cc(-c2cccs2)[nH]n1)c1ccccc1N1CCC(F)(F)CC1` [Compound 65] is less than 1 µM. `O=C(NCc1cc(-c2cccs2)[nH]n1)c1ccccc1N1CCC(F)(F)C1` [Compound 66] had an IC50 of less than 1 µM. In the case of `O=C(NCc1cc(-c2cccs2)[nH]n1)c1ccccc1N1CCCCC1` [Compound 68], the half-maximal inhibitory concentration (IC50) was less than 1 µM. The same measure, in the same setting: the same measure for `O=C(NCc1cc(-c2cccs2)[nH]n1)c1ccccc1N1CCOCC1` [Compound 69]: less than 1 µM; for `O=C(NCc1cc(-c2cccs2)[nH]n1)c1ccccc1N1CCS(=O)(=O)CC1` [Compound 70]: more than 10 µM; for `CN1CCN(c2ccccc2C(=O)NCc2cc(-c3cccs3)[nH]n2)CC1` [Compound 71]: 1 to 10 µM. Consider `O=C(NCc1cc(-c2cccs2)[nH]n1)c1ccccc1N1CCCC1` [Compound 72], for which the IC50 is less than 1 µM.

`O=C(NCc1n[nH]c(-c2cccs2)n1)c1ccccc1NCC(F)F` [Compound 73] gave an IC50 of more than 10 µM.

For the compound `O=C(NCc1n[nH]c(-c2cccs2)n1)c1ccccc1N1CC(F)(F)C1` [Compound 74], the IC50 was more than 10 µM. `O=C(NCc1n[nH]c(-c2cccs2)n1)c1ccccc1N1CCC(F)(F)C1` [Compound 75] returned an IC50 of less than 1 µM.

`O=C(NCc1n[nH]c(-c2cccs2)n1)c1ccccc1N1CCC(F)(F)CC1` [Compound 76, 2-(4,4-difluoropiperidin-1-yl)-N-((5-(thiophen-2-yl)-1H-1,2,4-triazol-3-yl)methyl) benzamide] registered an IC50 of 1 to 10 µM. In turn, `O=C(NCc1cc(-c2cccs2)[nH]n1)c1cc(C(F)(F)F)ccc1N1CCCC(F)(F)C1` [Compound 78] yielded a concentration for half-maximal inhibition (IC50) of less than 1 µM.

For `O=C(NCc1cc(-c2cccs2)[nH]n1)c1cccc(C(F)(F)F)c1N1CCCCC1` [Compound 79], the IC50 was 1 to 10 µM.

Take `O=C(NCc1cc(-c2cccs2)[nH]n1)c1cc(F)ccc1N1CCCCC1` [Compound 80, 5-fluoro-2-(piperidin-1-yl)-N-((5-(thiophen-2-yl)-1H-pyrazol-3-yl)methyl) benzamide]: the 50% inhibitory concentration (IC50) was less than 1 µM. On the same count and under the same terms, the same measure for `O=C(NCc1cc(-c2cccs2)[nH]n1)c1cc(O)ccc1N1CCCC(F)(F)C1` [Compound 81]: 1 to 10 µM; for `O=C(NCc1cc(-c2cccs2)[nH]n1)c1cccc(C(F)(F)F)c1N1CCCC1` [Compound 82]: 1 to 10 µM. In turn, `O=C(NCc1cc(-c2cccs2)[nH]n1)c1cc(C(F)(F)F)ccc1N1CCCC1` [Compound 83] gave a concentration for half-maximal inhibition (IC50) of 1 to 10 µM.
